# Entries after “also recorded” stand apart in the source; their conditions may differ. Where a SMILES comes first, the peptide text is derived from it. [ ]: non-standard residue; d: D form. The star is where a group is joined. Sta = CC(C)C[C@H](N)[C@@H](O)CC(=O)O; Isovaleryl = CC(C)CC(=O)*; Nle = CCCC[C@H](N)C(=O)O
# T1: calpain (Mus musculus, UniProt O35350)
# T1 construct: enzymatic activity of calpain in the supernatant fraction of the dexamethasone treated, induced cell lysate
# T1 sequence (O35350 1-713): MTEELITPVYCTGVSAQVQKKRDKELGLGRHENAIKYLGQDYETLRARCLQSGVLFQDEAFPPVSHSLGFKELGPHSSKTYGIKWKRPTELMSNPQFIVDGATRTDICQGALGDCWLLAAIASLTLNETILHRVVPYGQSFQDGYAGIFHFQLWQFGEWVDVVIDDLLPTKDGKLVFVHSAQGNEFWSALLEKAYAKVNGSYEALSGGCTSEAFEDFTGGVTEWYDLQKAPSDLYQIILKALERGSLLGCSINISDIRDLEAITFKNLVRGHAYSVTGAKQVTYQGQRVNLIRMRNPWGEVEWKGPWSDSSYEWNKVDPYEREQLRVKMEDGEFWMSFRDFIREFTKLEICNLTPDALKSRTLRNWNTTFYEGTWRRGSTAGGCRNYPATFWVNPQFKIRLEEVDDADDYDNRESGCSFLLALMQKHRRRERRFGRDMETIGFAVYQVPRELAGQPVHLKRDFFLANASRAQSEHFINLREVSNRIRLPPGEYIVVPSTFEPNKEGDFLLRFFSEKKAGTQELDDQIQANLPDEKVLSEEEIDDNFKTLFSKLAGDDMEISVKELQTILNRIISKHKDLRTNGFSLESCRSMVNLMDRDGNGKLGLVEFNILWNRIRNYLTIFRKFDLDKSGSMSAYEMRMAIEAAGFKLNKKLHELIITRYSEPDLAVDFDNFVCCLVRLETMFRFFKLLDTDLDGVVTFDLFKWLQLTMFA
# T1 sequence (O88456 1-268 partner): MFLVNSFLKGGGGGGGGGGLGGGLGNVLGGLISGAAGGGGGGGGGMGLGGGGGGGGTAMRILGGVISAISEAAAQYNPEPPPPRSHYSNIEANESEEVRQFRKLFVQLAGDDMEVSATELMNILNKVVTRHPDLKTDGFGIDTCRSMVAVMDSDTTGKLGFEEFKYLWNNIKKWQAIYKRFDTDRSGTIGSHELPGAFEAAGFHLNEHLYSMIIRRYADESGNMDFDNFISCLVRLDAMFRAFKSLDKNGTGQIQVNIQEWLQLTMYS
# B1: soybean trypsin inhibitor: protease inhibitor (protein, UniProt P01070 25-205, looked up)
# Trypsin inhibitor A: DFVLDNEGNPLENGGTYYILSDITAFGGIRAAPTGNERCPLTVVQSRNELDKGIGTIISSPYRIRFIAEGHPLSLKFDSFAVIMLCVGIPTEWSVVEDLPEGPAVKIGENKDAMDGWFRLERVSDDEFNNYKLVFCPQQAEDDKCGDIGISIDHDDGTRRLVVSKNKPLVVQFQKLDKESL
# What was measured:
# mouse model of sepsis = experiment: Lethality of particulate fractions produced in presence of protease inhibitors, mouse model of sepsis; assay type: in vivo; conditions: LPS primed mice, N=10 per group; E-64 vs no inhibitor P<0.0002, vs SBTI P<0.002
# Procedure: It was reasoned that the conversion of soluble iNOS to particulate iNOS, and thereby to lethal iNOS, might be the result of the proteolytic cleavage of the intact protein molecule. It was hypothesized that decreasing the cleavage process might be beneficial to septic patients since the lethal form of iNOS would be reduced or eliminated. This hypothesis was tested using various protease inhibitors. The loss of lethality produced by specific protease inhibitors was assessed by testing the lethal effects exerted by the administration of the particulate iNOS produced in the presence and absence of protease inhibitors to LPS primed mice.
# The three particulate fractions prepared in Example IX were tested for their lethality on groups of mice (5 female and 5 male mice per group, N=10) using our mouse model of sepsis. […] It is believed that treatment of septic patients with a protease inhibitor that decreases or stops the cleavage of iNOS in vivo could serve as an effective therapy for SIRS, sepsis, severe sepsis and septic shock.
# [1] = test system: proteolytic cleavage of iNOS in induced DLD-1-5B2 cells; experiment: Inhibition of the cleavage of iNOS in situ in induced DLD-1-5B2 cells (Western blot of particulate fraction); assay type: cell-based, human; conditions: nine hours; for fragmentation (proteolytic cleavage) of iNOS in situ: 24-well plates, 20 μg/well, inhibitor added three hours after start of induction, Western blot FIG. 8; for fragmentation (proteolytic cleavage) of iNOS in situ, larger scale production: T-75 flasks, inhibitor added 3 hours after induction, Western blot FIG. 9
# Procedure: DLD-1-5B2 cells, two days past confluence, were induced to express human iNOS using a mixture of recombinant human gamma interferon (rhIFNγ) at 8.33 ng/ml, recombinant human tumor necrosis factor-alpha (rhTNFα) at 3.3 ng/ml, and recombinant human interleukin-1β (rhIL-1β) at 3.3 ng/ml for 12-18 hours before being washed and harvested with trypsin/EDTA. The induced cells were washed three times with sterile PBS, transferred into sterile tubes in a small volume of sterile PBS, and stored frozen at −20° C. until processed for the isolation and fractionation of iNOS.
# The frozen, induced DLD-1-5B2 cells were thawed in an ice water bath and lysed by two rapid freeze/thaw cycles using dry ice. The iNOS produced by the induced DLD-1-5B2 cells was then fractionated into a supernatant (soluble) fraction and a particulate fraction. The lysed cells were centrifuged at 16,000×g at 4° C. for 30 minutes to pellet the particulate fraction. The supernatant fraction that contained the soluble iNOS was transferred and stored at −20° C. or used fresh. The pellets were washed once, resuspended in a small volume of ice cold sterile PBS, and the resulting particulate fraction of iNOS was stored at −20° C. or used fresh.
# The ability of six specific protease inhibitors to inhibit the cleavage of iNOS in situ was investigated using induced DLD-1-5B2 cells cultured in 24-well plates. Briefly, DLD-1-5B2 cells were cultured in 24-well plates instead of T-75 flasks, as described previously. Two days past confluence, the cells were induced with the same mixture of cytokines, but after three hours, the induction medium was removed from each well, the cells washed with pre-warmed sterile saline, and the medium replaced either with fresh DMEM, or with DMEM containing one of the six protease inhibitors being tested. Each inhibitor was assayed in triplicate at 20 μg/well. Nine hours later (12 hours after the start of the induction) the medium containing the inhibitors was removed, the cells were washed three times with ice-cold PBS, and the 24-well plates were placed on sheets of ice for 10 minutes to loosen the cells from the bottom of the plastic wells. The cells were blown off each well individually using a mechanical pipettor, sterile pipet tips, and ice-cold, sterile PBS. The cells were transferred to individual microfuge tubes on ice, collected by centrifugation, and washed twice with sterile, ice-cold PBS. No trypsin or other protease or EDTA was used during the harvesting or processing of the induced cells. The cells were lysed by 2 freeze/thaw cycles using dry ice and processed as previously described to isolate a supernatant fraction and a particulate fraction by centrifugation at 16,000×g. Both fractions were assayed in duplicate using the chemiluminescent EIA taught in U.S. patent application Ser. No. 09/628,585, and pools of the triplicate samples obtained for each protease inhibitor were analyzed by western blot. No statistically significant difference was found in the amount of iNOS contained in any of the supernatant fractions when compared to other supernatant fractions. Likewise, no statistically significant difference was found in the amount of iNOS contained in any of the particulate fractions when compared to other particulate fractions as measured by the EIA. Further, the distribution of iNOS between the supernatant and particulate fractions was similar for all the samples: the percent of the total iNOS in the supernatant fraction ranged from 55% to 65% and the percent of the total iNOS in the particulate fraction ranged from 35% to 45%. However, as is shown in FIG. 8, a difference in the form of the iNOS was found in the particulate fractions obtained from two of the protease inhibitors.
# The quantity of particulate fraction produced was scaled up in T-75 culture flasks for both of these protease inhibitors in order to make enough material to be tested for their individual lethality in our mouse model of sepsis. […]
# calpain = biological target: T1, calpain; conditions: supernatant fraction of dexamethasone treated, induced cell lysate; cited from earlier work
Molecule,lethality of the particulate iNOS fraction isolated from cells induced in the presence of the inhibitor (mouse model of sepsis),fragmentation (proteolytic cleavage) of iNOS in situ [1],cleavage of recombinant iNOS protein by calpain (calpain),"fragmentation (proteolytic cleavage) of iNOS in situ, larger scale production [1]",fragmentation (proteolytic cleavage) of iNOS in situ ([1]; listed as leupeptin)
CC(C)CC(=O)N[C@H](C(=O)N[C@H](C(=O)N[C@@H](CC(C)C)[C@@H](O)CC(=O)N[C@@H](C)C(=O)N[C@@H](CC(C)C)[C@@H](O)CC(=O)O)C(C)C)C(C)C [pepstatin-A] (Isovaleryl-VV[Sta]A[Sta]-OH),had no effect on the lethality of the particulate iNOS fraction,did not stop (inhibit) this cleavage process,,,
CCCC[C@@H](C=O)NC(=O)[C@H](CC(C)C)NC(=O)[C@H](CC(C)C)NC(C)=O [Ac-Leu-Leu-NLeu-al] (Ac-Leu-Leu-[Nle]-aldehyde),,,inhibit such cleavage,,
CC(C)C[C@H](NC(=O)[C@H]1O[C@@H]1C(=O)O)C(=O)NCCCCN=C(N)N [E-64],decrease the lethality of the particulate iNOS fraction; also recorded: statistically significant decrease in lethality,inhibited the proteolytic cleavage of the intact iNOS protein; also recorded: stopped (inhibited) the fragmentation of iNOS in situ,inhibit such cleavage,inhibiting the proteolytic cleavage of intact iNOS protein; also recorded: inhibit the fragmentation of iNOS in situ,
α1-protease inhibitor: protease inhibitor,had no effect on the lethality of the particulate iNOS fraction,did not stop (inhibit) this cleavage process,,,
aprotinin,,did not stop (inhibit) this cleavage process,,,
"CC(=O)N[C@@H](CC(C)C)C(=O)N[C@@H](CC(C)C)C(=O)N[C@H](C=O)CCCNC(=N)N [Leupeptin, leupeptin]",decrease the lethality of the particulate iNOS fraction,stopped (inhibited) the fragmentation of iNOS in situ,inhibit such cleavage,,inhibited the proteolytic cleavage of the intact iNOS protein
B1,had no effect on the lethality of the particulate iNOS fraction,did not stop (inhibit) this cleavage process,,inability of soybean trypsin inhibitor (lane 2) to inhibit this cleavage process,

# Source: patent publication US20070105780A1, “Therapeutic agent for iNOS generating illness” (priority 2005, published 2007)
